From patent US11434212B2, “Bicyclic compound as a caspase inhibitor” (CHIA TAI TIANQING PHARMACEUTICAL GROUP CO., LTD., priority 2017, dated 2022) come the findings set out here.

Molecules are shown by their SMILES.

Holding throughout (type): biochemical
Common to all, as to conditions: fluorogenic substrate 50 μM; test concentrations 1000 nM to 0.32 nM

One assay deals with T1, Caspase-1 (Homo sapiens, UniProt P29466).
T1 construct: purchased BioVision K151-100
T1 sequence (P29466 120-297 limits assumed): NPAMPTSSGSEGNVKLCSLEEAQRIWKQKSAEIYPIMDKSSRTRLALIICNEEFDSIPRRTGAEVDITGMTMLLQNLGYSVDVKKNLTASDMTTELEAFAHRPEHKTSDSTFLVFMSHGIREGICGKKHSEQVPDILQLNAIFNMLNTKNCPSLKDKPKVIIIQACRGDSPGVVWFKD
T1 sequence (P29466 317-404 limits assumed): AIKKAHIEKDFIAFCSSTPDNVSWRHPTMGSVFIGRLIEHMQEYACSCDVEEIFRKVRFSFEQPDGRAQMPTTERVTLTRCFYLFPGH
Nature of the assay: In vitro inhibitory activity on Caspase-1 (BioVision Caspase-1 Inhibitor Screening Kit). The protocol: (§1) Caspase Inhibitor Screening Kit for BioVision was used in this experiment to test the inhibitory activity of the test compounds on Caspase.
Caspase-1 Inhibitor Screening Kit (BioVision #K151-100)
(§2) Note: Each caspase enzymatic experiment uses the reagents in corresponding kit thereof. Each enzyme was dissolved in 550 μl of the corresponding 2× reaction buffer, sub-packed and stored at −80° C., respectively.
(§3) 1) The compound was diluted to a 200*test concentration with DMSO via the multiple dilution, then to a 2*test concentration with ddH2O, and added to a 384-well experimental plate at 12.5 μl per well. Test compounds and control compounds were tested at 6 concentration points, test concentrations ranging from 1000 nM to 0.32 nM. The ddH2O containing 1% DMSO was added to the 0% inhibition control well, and a high concentration of the control compound was added to the 100% inhibition control well (final concentration: 5 μM).
(§4) 2) 2× reaction buffer containing 10 mM DTT was prepared. The enzyme caspase stock solution was diluted 5-fold with 2× reaction buffer containing 10 mM DTT and added to a 384-well experimental plate at 6.25 μl per well. After being mixed, the enzyme and compounds were incubated at 37° C. for 30 minutes.
(§5) 3) The fluorogenic substrate of the enzyme caspase was diluted 5-fold with 2× reaction buffer containing 10 mM DTT, and then added to a 384-well experimental plate at 6.25 μl per well. The total reaction volume was 25 μl, the final concentration of the substrate was 50 μM, and the final concentration of DMSO was 0.5%. After the substrate was added, the 384-well experimental plate was incubated at 37° C. for 30 minutes.
(§6) 4) The fluorescence intensity (excitation light wavelength was 400 nm, emission light wavelength was 505 nm) was measured by using a multi-function microplate reader. Fluorescence intensity was used to calculate the inhibitory effect of the compounds on Caspase. GraphPad Prism software was used for fitting compound inhibition curves and calculating IC50 values.

The target of a further assay is T2, Caspase-3 (Homo sapiens, UniProt P42574).
T2 construct: purchased BioVision K153-100
T2 sequence (P42574 29-175 limits assumed): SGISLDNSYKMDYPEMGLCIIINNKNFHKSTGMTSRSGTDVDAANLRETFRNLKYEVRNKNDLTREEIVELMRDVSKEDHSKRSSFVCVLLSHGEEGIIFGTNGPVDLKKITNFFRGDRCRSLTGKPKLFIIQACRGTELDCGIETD
T2 sequence (P42574 176-277 limits assumed): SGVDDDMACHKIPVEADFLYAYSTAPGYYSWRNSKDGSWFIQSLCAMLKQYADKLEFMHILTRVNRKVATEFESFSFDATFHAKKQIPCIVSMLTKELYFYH
Nature of the assay: In vitro inhibitory activity on Caspase-3 (BioVision Caspase-3 Inhibitor Screening Kit). The protocol: as §1
Caspase-3 Inhibitor Screening Kit (BioVision #K153-100)
as §2, §3, §4, §5, §6

The next assay deals with T3, Caspase-8 (Homo sapiens, UniProt Q14790).
T3 construct: purchased BioVision K158-100
Nature of the assay: In vitro inhibitory activity on Caspase-8 (BioVision Caspase-8 Inhibitor Screening Kit). The protocol:
as §1
Caspase-8 Inhibitor Screening Kit (BioVision #K158-100)
as §2, §3, §4, §5, §6

T3 sequence (Q14790 217-374 limits assumed): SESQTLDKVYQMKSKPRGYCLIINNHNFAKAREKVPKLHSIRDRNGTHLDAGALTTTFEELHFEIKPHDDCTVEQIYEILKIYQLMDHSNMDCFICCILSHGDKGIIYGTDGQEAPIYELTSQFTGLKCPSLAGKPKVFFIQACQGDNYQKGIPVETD
T3 sequence (Q14790 385-479 limits assumed): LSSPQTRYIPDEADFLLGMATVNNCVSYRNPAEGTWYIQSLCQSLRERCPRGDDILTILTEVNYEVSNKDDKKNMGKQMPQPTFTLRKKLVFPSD

Usually IC50 stands for the concentration at which inhibition is half-maximal. Read a high IC50 as weaker potency. In the case of `C[C@H](NC(=O)c1cc(-c2ccccc2F)on1)C(=O)N[C@@H](CC(=O)O)C(=O)COc1c(F)c(F)cc(F)c1F` [Example 12], the IC50 on Caspase-1 came to 6.7 nM; at Caspase-3, 21 nM; against Caspase-8, 17.9 nM.

Consider `C[C@H](NC(=O)c1cc(-c2ccccc2)no1)C(=O)N[C@@H](CC(=O)O)C(=O)COc1c(F)c(F)cc(F)c1F` [Example 8], for which the results for the IC50 on Caspase-1, against Caspase-3 and against Caspase-8 were 5.5 nM, 21.8 nM and 18 nM, respectively.

For the compound `C[C@H](NC(=O)c1cc(-c2ccccc2Cl)no1)C(=O)N[C@@H](CC(=O)O)C(=O)COc1c(F)c(F)cc(F)c1F` [Example 17], the 50% inhibitory concentration (IC50) on Caspase-1 came to 4.2 nM; at Caspase-3 it was 9.5 nM; at Caspase-8, 31.4 nM.

Regarding `C[C@H](NC(=O)c1cc(-c2ccccc2)n[nH]1)C(=O)N[C@@H](CC(=O)O)C(=O)COc1c(F)c(F)cc(F)c1F` [Example 4], the figures for the IC50 against Caspase-1, at Caspase-3 and against Caspase-8 were 4.1 nM, 11.4 nM and 11.7 nM, respectively.

With `C[C@H](NC(=O)c1cc(-c2ccccc2)on1)C(=O)N[C@@H](CC(=O)O)C(=O)COc1c(F)c(F)cc(F)c1F` [Example 9], the figures for the half-maximal inhibitory concentration (IC50) against Caspase-1, at Caspase-3 and at Caspase-8 were 14.2 nM, 44.4 nM and 23.2 nM, respectively.

Consider `C[C@H](NC(=O)c1ncc(-c2ccccc2)s1)C(=O)N[C@@H](CC(=O)O)C(=O)COc1c(F)c(F)cc(F)c1F` [Example 2], for which the figures for the IC50 against Caspase-1, against Caspase-3 and on Caspase-8 were 5.3 nM, 29.6 nM and 24.6 nM, respectively.
